From PMC6345968, “Structural basis for species-selective targeting of Hsp90 in a pathogenic fungus” (Nature Communications, 2019)
Converted amounts (≈) assume the structure as drawn. Read-outs that look alike come from different tables or passages of the source.

Tests used:
[1] = molecular target: T1, Hsp90 in C. albicans (SC5314) lysate (Candida albicans, UniProt P46598); experiment: biochemical; format: binding; conditions: for FP signal: raw
T1 construct: endogenous in cells; host or cells: C. albicans SC5314 whole-cell lysate
T1 sequence (P46598 whole entry): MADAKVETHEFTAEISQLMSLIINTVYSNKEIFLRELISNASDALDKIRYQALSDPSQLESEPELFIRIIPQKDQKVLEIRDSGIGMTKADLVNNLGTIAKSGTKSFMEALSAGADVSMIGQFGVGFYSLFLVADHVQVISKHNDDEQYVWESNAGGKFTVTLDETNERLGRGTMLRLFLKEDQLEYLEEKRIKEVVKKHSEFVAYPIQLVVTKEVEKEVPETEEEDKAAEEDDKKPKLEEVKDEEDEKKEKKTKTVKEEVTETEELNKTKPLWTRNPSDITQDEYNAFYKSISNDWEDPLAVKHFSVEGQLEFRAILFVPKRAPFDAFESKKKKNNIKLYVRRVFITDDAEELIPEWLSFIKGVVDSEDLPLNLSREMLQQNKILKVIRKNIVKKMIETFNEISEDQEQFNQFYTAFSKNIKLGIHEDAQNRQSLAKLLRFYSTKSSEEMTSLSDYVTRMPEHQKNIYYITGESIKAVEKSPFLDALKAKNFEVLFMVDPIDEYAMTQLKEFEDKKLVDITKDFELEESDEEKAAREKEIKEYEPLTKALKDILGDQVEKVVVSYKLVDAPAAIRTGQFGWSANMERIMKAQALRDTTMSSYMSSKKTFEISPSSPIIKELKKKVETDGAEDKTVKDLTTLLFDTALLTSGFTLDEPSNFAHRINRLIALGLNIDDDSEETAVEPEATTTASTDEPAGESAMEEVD

Hsp90 in HEPG2 lysate = conditions: for FP signal: raw
[2] = test system: S. cerevisiae expressing C. albicans Hsp90; experiment: Broth microdilution growth inhibition (MIC), yeast with C. albicans Hsp90 as sole Hsp90; format: cell-based, Saccharomyces cerevisiae
Excerpt: (§1) A critical consideration in the development of an effective antifungal is not just target binding, but also access to the target across microbial cell membranes and cell walls. Therefore, we evaluated the potency and selectivity of oxime analogs using drug susceptibility assays. We used strains of S. cerevisiae where both endogenous genes encoding isoforms of Hsp90 have been disrupted and growth is solely dependent upon C. albicans or human Hsp90 isoforms.
(§2) Antifungal tolerance and resistance were determined in flat bottom, 96-well microtiter plates using a modified broth microdilution protocol as described[8],[10]. All Hsp90 inhibitors were formulated in dimethyl sulfoxide (DMSO, Sigma Aldrich Co.); fluconazole was dissolved in sterile ddH2O. Each strain was tested in duplicate on at least two occasions. […] To test for fungicidal activity, cultures from MIC plates were spotted on YPD agar plates using a spotter (Frogger, V&P Scientific, Inc). Plates were photographed after 48 h of incubations at 30 °C.

C. albicans SN95 = experiment: Growth inhibition in culture; format: cell-based, Candida albicans; conditions: 48-hour exposure
Excerpt: (§3) We began by measuring inhibition of C. albicans growth in culture.
(§4) Each colored box represents the mean of duplicate determinations. Color scale for relative growth is provided to far right of panel, green: no inhibition to black: complete inhibition. […] Cultures were then fixed and stained by Periodic Acid-Schiff (PAS) technique to visualize fungal burden (dark red/purple signal) and underlying human cells (light pink signal). Representative fields from conventional light photomicrographs are presented at the same magnification in all panels. The experiment was repeated in two independent biological replicates to confirm results. Scale bar, 100 μm
as §2

[3] = test system: C. albicans clinical isolate CaCi-2; experiment: Growth inhibition in culture; format: cell-based, Candida albicans; conditions: 48-hour exposure
Excerpt: as §3, §4, §2

Raw264.7 macrophages = experiment: Phagocytosis of GFP C. albicans by macrophages, flow cytometry; format: cell-based, mouse; conditions: 2 h pre-treatment
Method: Compromise of host immune function and other target-related toxicities preclude the use of non-species-selective Hsp90 inhibitors in the treatment of fungal infections. Host defense against invasive infection relies heavily on the ingestion and destruction of C. albicans by innate immune cells, such as macrophages. […] After an additional two hours, phagocytosis of the fluorescently labeled fungi was measured by flow cytometry. […] This Hsp90-dependent morphogenetic program has an important role in the organism’s virulence and interactions with host immune effectors such as macrophages.
The ingestion of GFP-marked C. albicans CaCi-2 (CaLC867, Table S4) by mouse macrophages was monitored using flow cytometry. Raw264.7 macrophage cultures were pre-treated with various concentrations of Hsp90 inhibitors for 2 h at 37 °C and then infected with fungus at a multiplicity of infection of ~2 for an additional 2 h. Wells were harvested by trypsinization and resultant cell suspensions incubated with Guava ViaCount reagent per manufacturer’s recommendation (Millipore Sigma, Cat #4000-0040). Red fluorescent signal was used to identify macrophages while green fluorescent signal identified the fungus. Dual positive (red and green) events with appropriate forward- and side-scatter parameters were quantitated as representative of ingestion of fungus by a macrophage. […]

[4] = test system: S. cerevisiae expressing human Hsp90α; format: cell-based, Saccharomyces cerevisiae; conditions: isogenic strains
Excerpt: as §1, §2

C. albicans CaCi-2 = experiment: Checkerboard with fluconazole, Bliss independence; format: cell-based, Candida albicans; conditions: 48 hours
Method: Each colored box represents the mean of duplicate determinations. […] Error bars, SD.
as §2

S. cerevisiae Hsp90 [5] = test system: S. cerevisiae Hsp90; parameters: method as in Owen, B. A. L. et al. J. Biol. Chem. 277, 7086–7091 (2002); conditions: ref Owen, B. A. L. et al. J. Biol. Chem. 277, 7086–7091 (2002); read-out: Km (ATP); cited from earlier work
C. albicans Hsp90 [6] = molecular target: T2, C. albicans Hsp90 (Candida albicans, UniProt P46598); experiment: ATPase activity, Michaelis-Menten / Lineweaver-Burk; format: biochemical; parameters: the core ATPase activity of purified full-length homodimers from each species; 6x-His (pRSET-A) (N); made in house; host or cells: E. coli RIL; conditions: γ-32P-labeled ATP
T2 sequence (P46598 whole entry): as above
Excerpt: 1151 Biochemical characterization of C. albicans Hsp90. a, Binding of C. albicans Hsp90 to its
1152 natural ligand ATP. b, Michaelis-Menten plot correlating the rate of ATP hydrolysis by C.
1153 albicans Hsp90 with concentration of substrate. Fractional cleavage of γ-32P-labeled ATP is
1154 plotted against ATP concentration. c, Lineweaver-Burk plot performed to define Km and kcat for
1155 the ATPase activity of C. albicans Hsp90. d, Comparison of parameters determined for C.
1156 albicans Hsp90 with previously published data for homologous human and yeast (S. cerevisiae)

human Hsp90 [7] = conditions: read-out: Km (ATP); ref Owen, B. A. L. et al. J. Biol. Chem. 277, 7086–7091 (2002); cited from earlier work
C. albicans Hsp90 [8] = molecular target: T2, C. albicans Hsp90; experiment: ATP binding by intrinsic tryptophan fluorescence quenching; conditions: read-out: Kd for ATP; purified full-length Hsp90
Excerpt: tryptophan fluorescence quenching by ligands.
Intrinsic tryptophan fluorescence was
Difference in intrinsic fluorescence of
assuming single-site specific binding.

human Hsp90 [9] = molecular target: human Hsp90; parameters: method as in Owen, B. A. L. et al. J. Biol. Chem. 277, 7086–7091 (2002); conditions: ref Owen, B. A. L. et al. J. Biol. Chem. 277, 7086–7091 (2002); read-out: Kd for ATP; cited from earlier work
S. cerevisiae Hsp90 [10] = molecular target: S. cerevisiae Hsp90; parameters: method as in Owen, B. A. L. et al. J. Biol. Chem. 277, 7086–7091 (2002); conditions: ref Owen, B. A. L. et al. J. Biol. Chem. 277, 7086–7091 (2002); read-out: Kd for ATP; cited from earlier work
[11] = test system: C. albicans reporter strain CaLC922; format: cell-based, Candida albicans; conditions: 6-h exposure
Method: In addition to effects on host immune function, we also examined activation of the evolutionarily conserved heat-shock response by CMLD013075.
Activation of the response in C. albicans was also measured in 96-well format using a reporter strain (CaLC922) engineered with HSP70 promoter elements driving expression of the LacZ gene from Streptococcus thermophilus integrated at the HSP70 locus with the URA3 marker for selection. […]

[12] = SC5314 lysate, 1.372 nM compound
[13] = SC5314 lysate, 4.115 nM compound
[14] = SC5314 lysate, 12.346 nM compound
[15] = SC5314 lysate, 37.037 nM compound
[16] = SC5314 lysate, 111.111 nM compound
[17] = SC5314 lysate, 333.333 nM compound
[18] = SC5314 lysate, 1000 nM compound
[19] = SC5314 lysate, 3000 nM compound

C[C@@H]1C[C@@H]2O[C@@H]2/C=C\C=C\C(=NOCc2ccccc2Cl)Cc2c(Cl)c(O)cc(O)c2C(=O)O1 [compound 4]
normalized fungal selectivity in lysates ([1]; C. albicans SC5314 vs HEPG2 lysate, FP): 2.9 fold | EC50 ([1]; EC50, SC5314 lysate, not normalized, oxime panel experiment 220817): 0.531 µM | Ratio re. GdA ([1]; EC50 relative to GdA, SC5314 lysate): 31.1993 | FP signal relative to 0 nM ([1]; SC5314 lysate, 0.457 nM compound): 0.9904 | FP signal (raw) ([1]; SC5314 lysate, 1.372 nM): 208 | FP signal relative to 0 nM [1, 12]: 1 | FP signal [1, 12]: 208 | FP signal (raw) ([1]; SC5314 lysate, 4.115 nM): 207 | FP signal relative to 0 nM [1, 13]: 0.9952 | FP signal [1, 13]: 207 | FP signal (raw) ([1]; SC5314 lysate, 12.346 nM): 202 | FP signal relative to 0 nM [1, 14]: 0.9712 | FP signal [1, 14]: 202 | FP signal (raw) ([1]; SC5314 lysate, 37.037 nM): 199 | FP signal relative to 0 nM [1, 15]: 0.9567 | FP signal [1, 15]: 199 | FP signal (raw) ([1]; SC5314 lysate, 111.111 nM): 186 | FP signal relative to 0 nM [1, 16]: 0.8942 | FP signal [1, 16]: 186 | FP signal (raw) ([1]; SC5314 lysate, 333.333 nM): 145 | FP signal relative to 0 nM [1, 17]: 0.6971 | FP signal [1, 17]: 145 | FP signal (raw) ([1]; SC5314 lysate, 1000 nM): 75 | FP signal relative to 0 nM [1, 18]: 0.3606 | FP signal [1, 18]: 75 | FP signal (raw) ([1]; SC5314 lysate, 3000 nM): 39 | FP signal relative to 0 nM [1, 19]: 0.1875 | FP signal [1, 19]: 39 | HepG2/SC5314 ([1]; ratio of GdA-normalized EC50s, human over fungal lysate): 2.89 | HepG2/SC5314 ([1]; ratio of GdA-relative EC50 ratios, HepG2 over SC5314): 2.89 | Ratio rel. GdA (HepG2) (Hsp90 in HEPG2 lysate; EC50 / EC50 of GdA in HepG2 lysate): 90.1713 | Ratio rel. GdA (HepG2) (Hsp90 in HEPG2 lysate; EC50 relative to GdA, HEPG2 lysate): 90.1713 | FP signal, Fxn Control (Hsp90 in HEPG2 lysate; HEPG2 lysate, log concentration 0.137354 (1.372 nM)): 1.0099 | FP signal, Fxn Control (Hsp90 in HEPG2 lysate; HEPG2 lysate, log concentration 0.61437 (4.115 nM)): 1.0198 | FP signal, Fxn Control (Hsp90 in HEPG2 lysate; HEPG2 lysate, log concentration 1.09153 (12.346 nM)): 1.0099 | FP signal, Fxn Control (Hsp90 in HEPG2 lysate; HEPG2 lysate, log concentration 1.56864 (37.037 nM)): 1.0099 | FP signal, Fxn Control (Hsp90 in HEPG2 lysate; HEPG2 lysate, log concentration 2.04576 (111.111 nM)): 0.9901 | FP signal, Fxn Control (Hsp90 in HEPG2 lysate; HEPG2 lysate, log concentration 2.52288 (333.333 nM)): 0.9158 | FP signal, Fxn Control (Hsp90 in HEPG2 lysate; HEPG2 lysate, log concentration 3 (1000 nM)): 0.6881 | FP signal, Fxn Control (Hsp90 in HEPG2 lysate; HEPG2 lysate, log concentration 3.47712 (3000 nM)): 0.2178 | FP signal, Fxn Control (Hsp90 in HEPG2 lysate; HEPG2 lysate, log concentration -0.340084 (0.457 nM)): 1.0099 | FP signal (raw) (Hsp90 in HEPG2 lysate; HepG2 lysate, 0.457 nM): 204 | FP signal (Hsp90 in HEPG2 lysate; HepG2 lysate, 0.457 nM compound): 204 | FP signal (raw) (Hsp90 in HEPG2 lysate; HepG2 lysate, 1.372 nM): 204 | FP signal (Hsp90 in HEPG2 lysate; HepG2 lysate, 1.372 nM compound): 204 | FP signal (raw) (Hsp90 in HEPG2 lysate; HepG2 lysate, 4.115 nM): 206 | FP signal (Hsp90 in HEPG2 lysate; HepG2 lysate, 4.115 nM compound): 206 | FP signal (raw) (Hsp90 in HEPG2 lysate; HepG2 lysate, 12.346 nM): 204 | FP signal (Hsp90 in HEPG2 lysate; HepG2 lysate, 12.346 nM compound): 204 | FP signal (raw) (Hsp90 in HEPG2 lysate; HepG2 lysate, 37.037 nM): 204 | FP signal (Hsp90 in HEPG2 lysate; HepG2 lysate, 37.037 nM compound): 204 | FP signal (raw) (Hsp90 in HEPG2 lysate; HepG2 lysate, 111.111 nM): 200 | FP signal (Hsp90 in HEPG2 lysate; HepG2 lysate, 111.111 nM compound): 200 | FP signal (raw) (Hsp90 in HEPG2 lysate; HepG2 lysate, 333.333 nM): 185 | FP signal (Hsp90 in HEPG2 lysate; HepG2 lysate, 333.333 nM compound): 185 | FP signal (raw) (Hsp90 in HEPG2 lysate; HepG2 lysate, 1000 nM): 139 | FP signal (Hsp90 in HEPG2 lysate; HepG2 lysate, 1000 nM compound): 139 | FP signal (raw) (Hsp90 in HEPG2 lysate; HepG2 lysate, 3000 nM): 44 | FP signal (Hsp90 in HEPG2 lysate; HepG2 lysate, 3000 nM compound): 44 | EC50 (Hsp90 in HEPG2 lysate; HepG2 lysate, oxime panel experiment 220817): 2 µM | MIC [2]: 2.6 µM (≈ 1.31 µg/mL)

C[C@@H]1C[C@H]2O[C@@H]2/C=C\C=C\C(=O)Cc2c(Cl)c(O)cc(O)c2C(=O)O1 [radicicol, reference compound]
heat-shock reporter activation (293T reporter cells): concentration-dependent reporter activation | single-agent growth inhibition (C. albicans SN95): comparable single-agent activity | single-agent growth inhibition [3]: comparable single-agent activity | effect on engulfment of C. albicans (Raw264.7 macrophages): Neither compound impaired engulfment | growth inhibition ([2]; twofold dilution series, heat map): significantly inhibit growth | activity compared with strain expressing C. albicans Hsp90 [4]: converse | Bliss synergy δ with fluconazole (C. albicans CaCi-2): 22.6

Nc1ncnc2c1ncn2[C@@H]1O[C@H](COP(=O)(O)OP(=O)(O)OP(=O)(O)O)[C@@H](O)[C@H]1O [ATP]
Km (S. cerevisiae Hsp90 [5]): 511 µM | Km (C. albicans Hsp90 [6]): 533 µM | Km (human Hsp90 [7]): 324 µM | Kd (C. albicans Hsp90 [8]): 125 µM | Kd (human Hsp90 [9]): 240 µM | Kd (S. cerevisiae Hsp90 [10]): 132 µM

CC(C)c1cc(-c2n[nH]c(=O)n2-c2ccc3c(ccn3C)c2)c(O)cc1O [ganetespib, reference compound]
heat-shock reporter activation (293T reporter cells): concentration-dependent reporter activation | heat-shock reporter activation [11]: neither ganetespib nor radicicol induced the reporter to a measurable extent
